Measurements taken from patent publication US20240024289A1, “TREATMENT OF BIPOLAR DISORDERS AND PSYCHOSIS USING DEXMEDETOMIDINE HYDROCHLORIDE” (BioXcel Therapeutics, Inc., priority 2020, published 2024).
Read-outs that look alike come from different tables or passages of the source.

Key:
Male C57/B16 mice [1] = tested on: Male C57/B16 mice
From the text: This system uses features derived from mouse behavioral data to classify compounds for their ability to treat neuro-psychiatric symptoms by comparing the features to a proprietary reference database of behavioral feature sets that are linked to classes of marketed drugs known to treat neuro-psychiatric symptoms. Thus the system can be used as a model to identify the psychiatric effect of a compound by comparing the effects of the compounds against drugs with known validated effects.
Once all features are extracted from the raw data through an automated pipeline, proprietary bioinformatics algorithms are used to decorrelate groups of features and find the combination of values that best separate different groups of interest.
SmartCube reference data used herein include anti-psychotics tested at several dose ranges. […] Anti-psychotics, when administered at higher doses, can engage additional receptor systems and thus affect mouse behavior differently.
Animals: Male C57/B16 mice (N=12 per group) from Taconic Laboratories were used. Upon receipt, mice were group-housed in OPTI mouse ventilated cages with 4 mice per cage. Mice were acclimated to the colony room for at least one week prior to test and subsequently tested at approximately 8-9 weeks of age. All animals were examined, handled, and weighed prior to initiation of the study to assure adequate health and suitability and to minimize non-specific stress associated with manipulation.
Treatment: 7 groups (N=12 per group)
All compounds tested were formulated in NP3 (vehicle solution): 5% Pharmasolve; 30% P3 (1:1:1 PEG200:PEG400:propylene glycol); 65% saline; pH is 5.1-6.
All SmartCube runs were conducted with NP3 as vehicle and under identical settings. […] Test compounds were injected intraperitoneally (IP) for 15 min before animals were placed in SmartCube for assessment.
The results for the class analyses are presented as standardized bar charts with percentages that sum to 100 for each dose. The percentage indicates the probability the classifier can differentiate between the vehicle group and test group. […]

Male C57/B16 mice [2] = settings: reference data from Psychogenics, cited from earlier work

| Structure (SMILES) | SmartCube class signature (Male C57/B16 mice [1]; IP, 1, 2 and 5 mcg/kg) | SmartCube class signature (Male C57/B16 mice [1]; IP, 10, 20 and 50 mcg/kg (0.01, 0.02, 0.05 mg/kg), 15 min before test) | SmartCube class signature (Male C57/B16 mice [1]; IP, higher doses) | SmartCube class signature (Male C57/B16 mice [2]; higher doses) | SmartCube class signature (Male C57/B16 mice [2]; therapeutically effective doses) |
| --- | --- | --- | --- | --- | --- |
| Cc1cccc([C@H](C)c2cnc[nH]2)c1C [Dexmedetomidine, (+) 4-(S)-[1-(2,3-dimethylphenyl)ethyl]-1H-imidazole] | cannot distinguish the mouse behaviour from behaviour of mice on vehicle | antipsychotic signature | high dose of anti-psychotic |  |  |
| N=C(N)NC(=O)Cc1c(Cl)cccc1Cl [Guanfacine] |  |  |  | high dose anti-psychotic | unable to assign signature |
